Source: patent US20210115018A1, “PIPERIDINE COMPOUNDS AS COVALENT MENIN INHIBITORS” (THE REGENTS OF THE UNIVERSITY OF MICHIGAN, priority 2018, published 2021)

System: MV4-11
Assay: 7-day proliferation assay (WST-8), cell growth inhibition
Format: cell-based
Conditions: MV4-11 cells, 7 days
Experimental: The effect of representative Compounds of the Disclosure on cell viability was determined in a 7-day proliferation assay. Cells were maintained in the appropriate culture medium with 10% FBS at 37° C. and an atmosphere of 5% CO2.
Cells were seeded in 96-well flat bottom (Corning COSTAR, Corning, NY, cat#3595) at a density of 2,000-3,000 cells/well in 100 μl of culture medium. Compounds were serially diluted in the appropriate medium, and […] the diluted compounds were added to the appropriate wells of the cell plate. After the addition of compounds, the cells were incubated at 37° C. in an atmosphere of 5% CO2 for 7 days. Cell viability was determined using the WST (2-(2-methoxy-4-nitrophenyl)-3-(4-nitrophenyl)-5-(2,4-disulfophenyl)-2H-tetrazolium, monosodium salt) Cell Counting-8 Kit (Dojindo Molecular Technologies, Inc., Rockville, Md.) according to the manufacturers' instructions.
WST-8 reagent was added to each well at a final concentration of 10% (v/v), and then the plates were incubated at 37° C. for 1-2 hours for color development. The absorbance was measured at 450 nm using a SPECTRAmax PLUS plate reader (Molecular Devices, Sunnyvale, Calif.). The readings were normalized to the DMSO-treated cells and the half maximal inhibitory concentration (IC50) was calculated by nonlinear regression (four parameters sigmoid fitted with variable slope, least squares fit, and no constraint) analysis using the GraphPad Prism 5 software (GraphPad Software, La Jolla, Calif.).

Row | Compound | IC50 [nM] | IC50 (Homo sapiens, MV4-11, 168 h) [nM]
1 | CC#CC(=O)N1CCCC(S(=O)(=O)c2ccc(N3CC(F)(CN4CCC([C@@](CN5CCC5)(c5cccc(F)c5)[C@H]5CCC[C@@H]5NC(=O)OC)CC4)C3)c(F)c2)C1 (some centres unmarked) [compound 114] | < 50 | 
2 | C=CC(=O)N1CCCC(S(=O)(=O)c2ccc(N3CC(C)(CN4CCC([C@@](CN5CCC5)(c5cccc(F)c5)[C@H]5CCC[C@@H]5NC(=O)OC)CC4)C3)c(F)c2)C1 (some centres unmarked) [compound 113] |  | < 50
3 | C#CC(=O)N1CCCC(S(=O)(=O)c2ccc(N3CC(F)(CN4CCC([C@@](CN5CCC5)(c5cccc(F)c5)[C@H]5CCC[C@@H]5NC(=O)OC)CC4)C3)c(F)c2)C1 (some centres unmarked) [compound 111] |  | < 500
4 | C=CC(=O)N1CCC[C@@H](S(=O)(=O)c2ccc(N3CC(CF)(CN4CCC([C@@](CN5CCC5)(c5cccc(F)c5)[C@H]5CCC[C@@H]5NC(=O)OC)CC4)C3)cc2)C1 [compound 196] |  | < 100
5 | COC(=O)N[C@H]1CCC[C@@H]1[C@](CN1CCC1)(c1cccc(F)c1)C1CCN(CC2(F)CN(c3ccc(S(=O)(=O)C4CN(C(=O)/C=C/CN(C)C)C4)cc3F)C2)CC1 [compound 96] |  | < 10
6 | CC#CC(=O)N1CCCC(S(=O)(=O)c2ccc(N3CC(F)(CN4CCC([C@@](CN5CCC5)(c5cccc(F)c5)[C@H]5CCC[C@@H]5NC(=O)OC)CC4)C3)c(F)c2)C1 (some centres unmarked) [compound 109] |  | < 50
7 | C=CC(=O)Nc1cccc(S(=O)(=O)c2ccc(N3CC[C@@H](CN4CCC([C@@](CN5CCC5)(c5cccc(F)c5)[C@H]5CCC[C@@H]5NC(=O)OC)CC4)C3)cc2)c1 [compound 104] |  | < 100
8 | C=CC(=O)N1CCC[C@@H](S(=O)(=O)c2ccc(N3CC(O)(CN4CCC([C@@](CN5CCC5)(c5cccc(F)c5)[C@H]5CCC[C@@H]5NC(=O)OC)CC4)C3)cc2)C1 [compound 195] |  | < 10
9 | C=CC(=O)Nc1cc(S(=O)(=O)c2ccc(N3CC(CN4CCC([C@@](CN5CCC5)(c5cccc(F)c5)[C@H]5CCC[C@@H]5NC(=O)OC)CC4)C3)cc2)ccc1N(C)CCN(C)C [compound 74] |  | < 50
10 | C=CC(=O)Nc1cncc(S(=O)(=O)c2ccc(N3CC(F)(CN4CCC([C@@](CN5CCC5)(c5cccc(F)c5)[C@H]5CCC[C@@H]5NC(=O)OC)CC4)C3)c(F)c2)c1 [compound 84] |  | < 50
11 | COC(=O)N[C@H]1CCC[C@@H]1[C@](CN1CCC1)(c1cccc(F)c1)C1CCN(CC2(F)CN(c3ccc(S(=O)(=O)C4CCCN(C(=O)NC/C=C/S(C)(=O)=O)C4)cc3F)C2)CC1 (some centres unmarked) [compound 123] |  | < 10
12 | C=CC(=O)Nc1ccnc(S(=O)(=O)c2ccc(N3CC(F)(CN4CCC([C@@](CN5CCC5)(c5cccc(F)c5)[C@H]5CCC[C@@H]5NC(=O)OC)CC4)C3)c(F)c2)c1 [compound 87] |  | < 500
13 | C=CC(=O)Nc1cc(F)cc(S(=O)(=O)c2ccc(N3CC(F)(CN4CCC([C@@](CN5CCC5)(c5cccc(F)c5)[C@H]5CCC[C@@H]5NC(=O)OC)CC4)C3)c(F)c2)c1 [compound 89] |  | < 50
14 | C=CC(=O)Nc1cc(C(F)(F)F)cc(S(=O)(=O)c2ccc(N3CC(CN4CCC([C@@](CN5CCC5)(c5cccc(F)c5)[C@H]5CCC[C@@H]5NC(=O)OC)CC4)C3)cc2)c1 [compound 78] |  | < 10
15 | C=CC(=O)Nc1cc(S(=O)(=O)c2ccc(N3CC(CN4CCC([C@@](CN5CCC5)(c5cccc(F)c5)[C@H]5CCC[C@@H]5NC(=O)OC)CC4)C3)cc2)ccc1C(F)(F)F [compound 81] |  | < 50
16 | CC#CC(=O)N1CC(S(=O)(=O)c2ccc(N3CC(O)(CN4CCC([C@@](CN5CCC5)(c5cccc(F)c5)[C@H]5CCC[C@@H]5NC(=O)OC)CC4)C3)cc2)C1 [compound 203] |  | < 10
17 | C=CC(=O)Nc1cccc(S(=O)(=O)c2ccc(N3CC(CN4CCC([C@@](CN5CCC5)(c5cccc(F)c5)[C@H]5CCC[C@@H]5NC(=O)OC)CC4)C3)c(F)c2)c1 [compound 73] |  | < 10
18 | C=CC(=O)N1CCC(S(=O)(=O)c2ccc(N3CC(F)(CN4CCC([C@@](CN5CCC5)(c5cccc(F)c5)[C@H]5CCC[C@@H]5NC(=O)OC)CC4)C3)c(F)c2)C1 (some centres unmarked) [compound 108] | < 100 | 
19 | CC#CC(=O)N1CC[C@@H](S(=O)(=O)c2ccc(N3CC(F)(CN4CCC([C@@](CN5CCC5)(c5cccc(F)c5)[C@H]5CCC[C@@H]5NC(=O)OC)CC4)C3)c(F)c2)C1 [compound 115] |  | < 50
20 | COC(=O)N[C@H]1CCC[C@@H]1[C@](CN1CCC1)(c1cccc(F)c1)C1CCN(CC2(F)CN(c3ccc(S(=O)(=O)C4CCCN(C(=O)C#CCO)C4)cc3F)C2)CC1 (some centres unmarked) [compound 121] |  | < 100
